Like-named read-outs stand apart in the source and are kept apart here. One block for each compound: values may come before it.
How the values were obtained:
hmGlu1 [1] = target: T1, hmGlu1 (Homo sapiens, UniProt Q13255); assay: Calcium mobilization mGlu1 PAM assay; type: cell-based; details: for Fold selective versus mGlu4: mGlu4 EC50 / mGlu1 EC50; for mGlu1 agonism / PAM profile: agonism at concentrations above 10 µM
[2] = Rat brain homogenate binding; type: in vitro ADME
mGlu5 = mGlu5 (Homo sapiens, UniProt P41594); assay: Activity at mGlu5; type: cell-based
mGlu5, sequence (P41594 21-1212): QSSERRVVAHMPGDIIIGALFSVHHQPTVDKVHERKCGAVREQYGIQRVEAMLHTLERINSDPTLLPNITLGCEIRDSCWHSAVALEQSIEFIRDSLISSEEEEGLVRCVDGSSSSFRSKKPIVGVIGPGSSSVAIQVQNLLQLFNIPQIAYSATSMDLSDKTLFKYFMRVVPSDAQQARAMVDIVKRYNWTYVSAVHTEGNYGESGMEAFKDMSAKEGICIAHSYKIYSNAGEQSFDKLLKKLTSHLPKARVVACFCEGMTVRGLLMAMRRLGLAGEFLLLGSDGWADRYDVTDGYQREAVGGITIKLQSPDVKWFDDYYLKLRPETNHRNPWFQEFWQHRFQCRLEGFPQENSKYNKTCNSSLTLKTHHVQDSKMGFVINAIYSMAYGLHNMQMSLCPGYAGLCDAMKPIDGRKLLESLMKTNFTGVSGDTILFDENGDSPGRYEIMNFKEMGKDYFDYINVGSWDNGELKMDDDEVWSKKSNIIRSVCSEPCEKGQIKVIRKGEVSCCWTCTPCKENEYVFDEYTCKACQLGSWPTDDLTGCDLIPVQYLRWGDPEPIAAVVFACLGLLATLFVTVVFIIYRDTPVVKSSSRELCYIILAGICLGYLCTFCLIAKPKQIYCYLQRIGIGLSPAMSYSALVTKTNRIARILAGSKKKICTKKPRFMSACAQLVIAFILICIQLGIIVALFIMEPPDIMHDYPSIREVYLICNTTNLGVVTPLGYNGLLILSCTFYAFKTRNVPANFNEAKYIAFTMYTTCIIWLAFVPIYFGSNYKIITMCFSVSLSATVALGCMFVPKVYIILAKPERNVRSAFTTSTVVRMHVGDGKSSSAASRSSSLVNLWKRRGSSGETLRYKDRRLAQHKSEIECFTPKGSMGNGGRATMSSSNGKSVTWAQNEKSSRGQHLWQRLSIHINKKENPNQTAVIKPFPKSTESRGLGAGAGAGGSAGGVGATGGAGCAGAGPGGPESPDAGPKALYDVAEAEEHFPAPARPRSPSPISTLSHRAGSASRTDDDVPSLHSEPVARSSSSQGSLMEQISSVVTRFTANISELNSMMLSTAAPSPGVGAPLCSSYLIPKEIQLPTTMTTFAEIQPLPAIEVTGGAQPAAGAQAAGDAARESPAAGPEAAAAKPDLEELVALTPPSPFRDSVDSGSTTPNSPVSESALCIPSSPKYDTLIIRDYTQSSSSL

[3] = In vitro predicted hepatic clearance, human hepatic microsomes; type: in vitro ADME
[4] = In vitro predicted hepatic clearance, rat hepatic microsomes; type: in vitro ADME
[5] = rat; cited from earlier work
[6] = human; cited from earlier work
[7] = cited from earlier work
hmGlu1 [8] = target: T1, hmGlu1; details: cited from earlier work

T1 sequence (Q13255 19-1194): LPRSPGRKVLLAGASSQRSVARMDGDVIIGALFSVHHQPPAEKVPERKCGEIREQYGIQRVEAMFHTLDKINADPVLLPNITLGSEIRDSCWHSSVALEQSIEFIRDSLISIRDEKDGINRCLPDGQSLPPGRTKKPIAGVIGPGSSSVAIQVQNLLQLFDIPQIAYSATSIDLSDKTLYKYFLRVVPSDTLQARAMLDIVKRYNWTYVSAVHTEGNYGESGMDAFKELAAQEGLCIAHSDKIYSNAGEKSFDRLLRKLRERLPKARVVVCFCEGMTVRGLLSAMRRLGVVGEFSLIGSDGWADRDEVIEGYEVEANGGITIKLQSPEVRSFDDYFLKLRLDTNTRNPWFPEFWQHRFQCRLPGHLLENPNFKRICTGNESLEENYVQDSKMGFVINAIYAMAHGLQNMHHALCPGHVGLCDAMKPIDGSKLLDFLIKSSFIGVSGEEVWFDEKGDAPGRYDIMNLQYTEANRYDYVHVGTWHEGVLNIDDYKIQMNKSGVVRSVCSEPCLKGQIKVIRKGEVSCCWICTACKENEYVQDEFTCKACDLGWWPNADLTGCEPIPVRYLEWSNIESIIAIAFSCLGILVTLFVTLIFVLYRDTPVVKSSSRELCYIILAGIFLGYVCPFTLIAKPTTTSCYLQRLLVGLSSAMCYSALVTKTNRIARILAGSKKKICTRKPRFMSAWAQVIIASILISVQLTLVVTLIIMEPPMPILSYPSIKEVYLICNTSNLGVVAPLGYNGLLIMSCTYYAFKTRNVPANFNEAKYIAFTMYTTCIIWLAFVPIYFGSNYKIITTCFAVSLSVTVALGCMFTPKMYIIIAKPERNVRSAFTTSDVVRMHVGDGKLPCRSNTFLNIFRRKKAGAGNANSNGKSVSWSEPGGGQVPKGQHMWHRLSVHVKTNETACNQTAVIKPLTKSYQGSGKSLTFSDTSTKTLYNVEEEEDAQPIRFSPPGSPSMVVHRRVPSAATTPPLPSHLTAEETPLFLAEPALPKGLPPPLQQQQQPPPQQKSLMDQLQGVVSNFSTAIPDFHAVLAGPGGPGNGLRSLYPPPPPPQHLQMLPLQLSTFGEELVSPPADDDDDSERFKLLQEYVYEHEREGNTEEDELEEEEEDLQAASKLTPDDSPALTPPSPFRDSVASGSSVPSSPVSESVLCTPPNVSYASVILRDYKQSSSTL

Fold selective versus mGlu4 (hmGlu1 [1]): >208 fold
SMILES: Cc1ccoc1C(=O)Nc1ccc(N2C(=O)c3ccccc3C2=O)cc1 [10a]

mGlu1 versus mGlu4 PAM potency (hmGlu1 [1]): equipotent
SMILES: Cc1ccoc1C(=O)Nc1cnc(N2C(=O)c3ccccc3C2=O)nc1 [11e]

mGlu1 versus mGlu4 PAM potency (hmGlu1 [1]): equipotent
Fold selective versus mGlu4 (hmGlu1 [1]): >1.88 fold
SMILES: Cc1ccoc1C(=O)Nc1cnc(N2C(=O)c3cccc(F)c3C2=O)nc1 [11h]

Fold selective versus mGlu4 (hmGlu1 [1]): >25.8 fold
SMILES: Cc1ccoc1C(=O)Nc1ccc(N2C(=O)c3ccccc3C2=O)nc1 [11a]

fraction unbound [2]: < 0.01
activity at mGlu5 (mGlu5): no activity
predicted hepatic clearance CLHEP [3]: 9.25 mL/min/kg
predicted hepatic clearance CLHEP [4]: 48.7 mL/min/kg
Fold selective versus mGlu4 (hmGlu1 [1]): >344 fold
SMILES: Cc1ccoc1C(=O)Nc1ccc(N2C(=O)c3ccccc3C2=O)cc1Cl [12b]
mGlu1 agonism / PAM profile (hmGlu1 [1]): did not show any observable agonistic effect

fraction unbound [2]: < 0.01
activity at mGlu5 (mGlu5): no activity
predicted hepatic clearance CLHEP [3]: 9.65 mL/min/kg
predicted hepatic clearance CLHEP [4]: 48.5 mL/min/kg
Fold selective versus mGlu4 (hmGlu1 [1]): >793 fold
SMILES: Cc1ccoc1C(=O)Nc1ccc(N2C(=O)c3ccccc3C2=O)cc1F [12a]
mGlu1 agonism / PAM profile (hmGlu1 [1]): did not show any observable agonistic effect

SMILES: Cc1ccoc1C(=O)Nc1ccc(N2C(=O)c3cccc(F)c3C2=O)c(Cl)c1 [compound 4]
free fraction fu [5]: 0.03
free fraction fu [6]: 0.05
Kp (CNS penetration) [7]: 1.02
CLp ([7]; rat PK): 13.3 mL/min/kg
mGlu1 agonism (hmGlu1 [8]; at concentrations above 10 µM, previously observed with parent compound): considerable agonism
selectivity versus mGlu4 (hmGlu1 [8]): 35 fold

Fold selective versus mGlu4 (hmGlu1 [1]): >30.3 fold
SMILES: COc1cc(N2C(=O)c3ccccc3C2=O)ccc1NC(=O)c1occc1C [12e]

Source: PMC4758672 (Bioorganic & medicinal chemistry letters, 2015)
